Laboratory results as given in patent US8426417B2, “Substituted pyrrolo-pyrimidine derivatives, process for their preparation and their use as kinase inhibitors” (priority 2007, dated 2013).

Target: T1, PLK1 enzyme KD (Kinase Domain) 2-345 (Homo sapiens, UniProt P53350)
T1 construct: PLK1 kinase domain (corresponding to residues 2-345) was PCR amplified; His tag (N, cleaved yes); TEV cleavage site (N, cleaved yes); made in house; host or cells: High5 insect cells (baculovirus generated in Sf9)
Test: Biochemical assay for inhibitors of PLK-1 kinase activity (trans-phosphorylation, Dowex resin, 33P-ATP)
Conditions: PLK1 KD 2-345 3 nM, 40 microM ATP, 85 microM alpha-casein, 60 minutes at room temperature
Protocol: The inhibitory activity of putative kinase inhibitors and the potency of selected compounds were determined using a trans-phosphorylation assay.
Three cycles of mixing are done immediately after the addition of the resin.

T1 sequence (P53350 2-345): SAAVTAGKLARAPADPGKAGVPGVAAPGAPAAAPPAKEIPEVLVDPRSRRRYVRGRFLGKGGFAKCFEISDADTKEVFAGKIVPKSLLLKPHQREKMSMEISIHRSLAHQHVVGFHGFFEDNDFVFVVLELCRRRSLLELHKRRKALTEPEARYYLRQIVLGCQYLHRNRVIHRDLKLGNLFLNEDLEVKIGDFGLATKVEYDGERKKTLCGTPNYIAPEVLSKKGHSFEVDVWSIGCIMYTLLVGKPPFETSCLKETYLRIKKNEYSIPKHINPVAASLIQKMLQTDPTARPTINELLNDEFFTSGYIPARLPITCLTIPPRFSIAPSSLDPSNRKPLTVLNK

O=C1NCCc2[nH]c(-c3ccnc(Nc4ccccc4)n3)cc21 [Reference Compound]
IC50: 110 nM
